Reference: PMC9027111, “Morphing Natural Product Platensimycin via Heck, Sonogashira, and One-Pot Sonogashira/Cycloaddition Reactions to Produce Antibiotics with In Vivo Activity” (Antibiotics, 2022)
In brackets after ≈: the same amount, converted by molar mass.

Key:
MRSA 4 = test: MIC determination (LB agar dilution), clinical MRSA strain 4; assay type: cell-based; details: Staphylococcus aureus, at least two replicates
Protocol: (§1) All of the tested compounds were prepared to different concentrations with methanol, and 150 μL of the respective methanol solution was used to mix with 15 mL LB (Luria–Bertani) medium with 1% agar in each Petri dish. Linezolid and PTM were used as reference compounds for comparison. In vitro bioassay for compounds was carried out using clinical strains of S. aureus, E. coli, and Klebsilla pneumoniae. The bacteria were cultivated in LB medium and incubated for 16 h at 37 °C, 250 rpm. The resulting bacteria were diluted to approximate 0.25 at OD600, which were further diluted 10_4-fold. The diluted bacteria (2 μL) were added to Petri dish containing the respective compounds. The resulting Petri dishes were incubated for 16 h at 37 °C. The determination of MIC is the concentration of Petri dishes with no visible growth of bacteria.

S. aureus ATCC 29213 = test: MIC determination (LB agar dilution), S. aureus ATCC 29213; assay type: cell-based; details: Staphylococcus aureus, ATCC29213, at least two replicates
Protocol: as §1

MRSA 3 = test: MIC determination (LB agar dilution), clinical MRSA strain 3; assay type: cell-based; details: Staphylococcus aureus, at least two replicates
Protocol: as §1

MSSA 1 = test: MIC determination (LB agar dilution), clinical MSSA strain 1; assay type: cell-based; details: Staphylococcus aureus, at least two replicates
Protocol: as §1

MSSA 2 = test: MIC determination (LB agar dilution), clinical MSSA strain 2; assay type: cell-based; details: Staphylococcus aureus, at least two replicates
Protocol: as §1

MRSA = assay type: in vivo; details: 50 mg/kg intraperitoneal at 1 h and 5 h after infection, tracked 7 days, n = 5

| SMILES | MIC (MRSA 4) [µg/mL] | MIC (S. aureus ATCC 29213) [µg/mL] | MIC (MRSA 3) [µg/mL] | MIC (MSSA 1) [µg/mL] | MIC (MSSA 2) [µg/mL] | survival of infected mice (MRSA) [%] |
| --- | --- | --- | --- | --- | --- | --- |
| CC12CC34C=C(C#Cc5ccccc5)C(=O)C(C)(CCC(=O)Nc5c(O)ccc(C(=O)O)c5O)C3C(CC1C4)O2 (stereo not shown) [B7] | 1 (≈ 1.85 µM) | 1 (≈ 1.85 µM) | 1 (≈ 1.85 µM) | 1 (≈ 1.85 µM) | 1 (≈ 1.85 µM) |  |
| CC12CC34C=C(C#Cc5cccc(N)c5)C(=O)C(C)(CCC(=O)Nc5c(O)ccc(C(=O)O)c5O)C3C(CC1C4)O2 (stereo not shown) [B9] | 1 (≈ 1.8 µM) | 1 (≈ 1.8 µM) | 1 (≈ 1.8 µM) | 1 (≈ 1.8 µM) | 1 (≈ 1.8 µM) |  |
| Cc1ccc(C#CC2=CC34CC5CC(OC5(C)C3)C4C(C)(CCC(=O)Nc3c(O)ccc(C(=O)O)c3O)C2=O)cc1 (stereo not shown) [B10] | 4 (≈ 7.2 µM) | 8 (≈ 14.4 µM) | 8 (≈ 14.4 µM) | 4 (≈ 7.2 µM) | 4 (≈ 7.2 µM) |  |
| CCc1ccc(C#CC2=CC34CC5CC(OC5(C)C3)C4C(C)(CCC(=O)Nc3c(O)ccc(C(=O)O)c3O)C2=O)cc1 (stereo not shown) [B11] | 1 (≈ 1.76 µM) | 1 (≈ 1.76 µM) | 1 (≈ 1.76 µM) | 1 (≈ 1.76 µM) | 1 (≈ 1.76 µM) |  |
| CCCCc1ccc(C#CC2=CC34CC5CC(OC5(C)C3)C4C(C)(CCC(=O)Nc3c(O)ccc(C(=O)O)c3O)C2=O)cc1 (stereo not shown) [B12] | 8 (≈ 13.4 µM) | 8 (≈ 13.4 µM) | 8 (≈ 13.4 µM) | 8 (≈ 13.4 µM) | 8 (≈ 13.4 µM) |  |
| COc1ccc(C#CC2=CC34CC5CC(OC5(C)C3)C4C(C)(CCC(=O)Nc3c(O)ccc(C(=O)O)c3O)C2=O)cc1 (stereo not shown) [B13] | 1 (≈ 1.75 µM) | 1 (≈ 1.75 µM) | 1 (≈ 1.75 µM) | 1 (≈ 1.75 µM) | 1 (≈ 1.75 µM) |  |
| CN[C@H](CC(C)C)C(=O)N[C@H]1C(=O)N[C@@H](CC(N)=O)C(=O)N[C@H]2C(=O)N[C@H]3C(=O)N[C@H](C(=O)N[C@H](C(=O)O)c4cc(O)cc(O)c4-c4cc3ccc4O)[C@H](O)c3ccc(c(Cl)c3)Oc3cc2cc(c3O[C@@H]2O[C@H](CO)[C@@H](O)[C@H](O)[C@H]2O[C@H]2C[C@](C)(N)[C@H](O)[C@H](C)O2)Oc2ccc(cc2Cl)[C@H]1O [vancomycin, reference compound] |  |  |  |  |  | 100 |

More lines, main results first:

| MIC (MRSA 4) [µg/mL] | MIC (S. aureus ATCC 29213) [µg/mL] | MIC (MRSA 3) [µg/mL] | MIC (MSSA 1) [µg/mL] | MIC (MSSA 2) [µg/mL] | SMILES | survival of infected mice (MRSA) [%] |
| --- | --- | --- | --- | --- | --- | --- |
| 1 (≈ 1.79 µM) | 1 (≈ 1.79 µM) | 1 (≈ 1.79 µM) | 1 (≈ 1.79 µM) | 1 (≈ 1.79 µM) | CC12CC34C=C(C#Cc5ccc(F)cc5)C(=O)C(C)(CCC(=O)Nc5c(O)ccc(C(=O)O)c5O)C3C(CC1C4)O2 (stereo not shown) [B14] |  |
| 1 (≈ 1.74 µM) | 1 (≈ 1.74 µM) | 1 (≈ 1.74 µM) | 1 (≈ 1.74 µM) | 1 (≈ 1.74 µM) | CC12CC34C=C(C#Cc5ccc(Cl)cc5)C(=O)C(C)(CCC(=O)Nc5c(O)ccc(C(=O)O)c5O)C3C(CC1C4)O2 (stereo not shown) [B15] |  |
| 16 (≈ 24.9 µM) | 16 (≈ 24.9 µM) | 16 (≈ 24.9 µM) | 16 (≈ 24.9 µM) | 16 (≈ 24.9 µM) | CC(=O)C1=C(C)OC(Cc2ccccc2)=C2C(=O)C(C)(CCC(=O)Nc3c(O)ccc(C(=O)O)c3O)C3C4CC5CC3(CC5(C)O4)C12 (stereo not shown) [C1] |  |
| 16 (≈ 24.4 µM) | 16 (≈ 24.4 µM) | 16 (≈ 24.4 µM) | 16 (≈ 24.4 µM) | 16 (≈ 24.4 µM) | CC(=O)C1=C(C)OC(Cc2ccc(C)cc2)=C2C(=O)C(C)(CCC(=O)Nc3c(O)ccc(C(=O)O)c3O)C3C4CC5CC3(CC5(C)O4)C12 (stereo not shown) [C2] |  |
| 32 (≈ 47.8 µM) | 32 (≈ 47.8 µM) | 32 (≈ 47.8 µM) | 32 (≈ 47.8 µM) | 32 (≈ 47.8 µM) | CCc1ccc(CC2=C3C(=O)C(C)(CCC(=O)Nc4c(O)ccc(C(=O)O)c4O)C4C5CC6CC4(CC6(C)O5)C3C(C(C)=O)=C(C)O2)cc1 (stereo not shown) [C3] |  |
| 32 (≈ 45.9 µM) | 32 (≈ 45.9 µM) | 32 (≈ 45.9 µM) | 32 (≈ 45.9 µM) | 32 (≈ 45.9 µM) | CCCCc1ccc(CC2=C3C(=O)C(C)(CCC(=O)Nc4c(O)ccc(C(=O)O)c4O)C4C5CC6CC4(CC6(C)O5)C3C(C(C)=O)=C(C)O2)cc1 (stereo not shown) [C4] |  |
| 16 (≈ 24.3 µM) | 16 (≈ 24.3 µM) | 16 (≈ 24.3 µM) | 16 (≈ 24.3 µM) | 16 (≈ 24.3 µM) | CC(=O)C1=C(C)OC(Cc2cccc(F)c2)=C2C(=O)C(C)(CCC(=O)Nc3c(O)ccc(C(=O)O)c3O)C3C4CC5CC3(CC5(C)O4)C12 (stereo not shown) [C5] |  |
| 32 (≈ 47.3 µM) | 32 (≈ 47.3 µM) | 32 (≈ 47.3 µM) | 32 (≈ 47.3 µM) | 32 (≈ 47.3 µM) | CC(=O)C1=C(C)OC(Cc2ccc(Cl)cc2)=C2C(=O)C(C)(CCC(=O)Nc3c(O)ccc(C(=O)O)c3O)C3C4CC5CC3(CC5(C)O4)C12 (stereo not shown) [C7] |  |
| 1 (≈ 2.96 µM) | 1 (≈ 2.96 µM) | 1 (≈ 2.96 µM) | 1 (≈ 2.96 µM) | 1 (≈ 2.96 µM) | CC(=O)NC[C@H]1CN(c2ccc(N3CCOCC3)c(F)c2)C(=O)O1 [Linezolid, reference compound] |  |
